Values quoted from earlier work in patent US20190000898A1, “COMBINING ADENOVIRUS AND CHEMOTHERAPEUTIC AGENTS FOR TREATING CANCER” (priority 2016, published 2019).

Tests used:
unresectable MPM = conditions: patients; p=0.02
[1] = system: syngeneic pancreatic tumors; conditions: immune-competent hamsters

SMILES | median survival (unresectable MPM) | antitumor efficacy (tumor growth) [1]
N.N.[Cl][Pt][Cl] [Cisplatin] | 9 months | –
O=P1(N(CCCl)CCCl)NCCCO1 (centres unmarked) [cyclophosphamide] | – | did not result in significant reduction of tumor growth
